The numbers were not newly measured in patent US20070148689A1, “Compositions and methods for the prevention, treatment and detection of tuberculosis and other diseases” (priority 2000, published 2007), which cites them from elsewhere.

Data set [1] addresses CODH (Neomoorella thermoacetica, UniProt P27988).
The conditions of data set [2]: chelator by intraperitoneal injection shortly after oral or intraperitoneal administration of nickel.
The conditions of data set [3]: 10% DTPA in an oil-in-water emulsion.
The target of data set [4] is CO(L)-deficient CODH (Rhodospirillum rubrum, UniProt P31896).
Sequence of CO(L)-deficient CODH (P31896 whole entry): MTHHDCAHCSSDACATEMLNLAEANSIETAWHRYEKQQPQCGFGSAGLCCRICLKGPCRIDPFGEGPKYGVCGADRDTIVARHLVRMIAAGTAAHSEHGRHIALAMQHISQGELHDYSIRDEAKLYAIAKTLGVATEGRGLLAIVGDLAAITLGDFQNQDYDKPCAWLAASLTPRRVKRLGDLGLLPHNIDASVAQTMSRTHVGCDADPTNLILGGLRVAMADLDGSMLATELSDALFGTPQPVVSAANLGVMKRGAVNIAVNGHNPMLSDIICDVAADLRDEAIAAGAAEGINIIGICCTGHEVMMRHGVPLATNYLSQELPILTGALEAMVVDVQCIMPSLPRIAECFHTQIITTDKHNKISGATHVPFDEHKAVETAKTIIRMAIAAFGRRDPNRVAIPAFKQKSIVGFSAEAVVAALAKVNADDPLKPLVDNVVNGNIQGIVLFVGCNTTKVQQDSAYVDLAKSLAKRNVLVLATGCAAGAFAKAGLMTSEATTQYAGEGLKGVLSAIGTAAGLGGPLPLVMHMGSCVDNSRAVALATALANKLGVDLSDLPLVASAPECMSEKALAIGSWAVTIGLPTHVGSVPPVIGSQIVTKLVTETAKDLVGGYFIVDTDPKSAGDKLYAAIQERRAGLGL

Sequence of CODH (P27989 whole entry): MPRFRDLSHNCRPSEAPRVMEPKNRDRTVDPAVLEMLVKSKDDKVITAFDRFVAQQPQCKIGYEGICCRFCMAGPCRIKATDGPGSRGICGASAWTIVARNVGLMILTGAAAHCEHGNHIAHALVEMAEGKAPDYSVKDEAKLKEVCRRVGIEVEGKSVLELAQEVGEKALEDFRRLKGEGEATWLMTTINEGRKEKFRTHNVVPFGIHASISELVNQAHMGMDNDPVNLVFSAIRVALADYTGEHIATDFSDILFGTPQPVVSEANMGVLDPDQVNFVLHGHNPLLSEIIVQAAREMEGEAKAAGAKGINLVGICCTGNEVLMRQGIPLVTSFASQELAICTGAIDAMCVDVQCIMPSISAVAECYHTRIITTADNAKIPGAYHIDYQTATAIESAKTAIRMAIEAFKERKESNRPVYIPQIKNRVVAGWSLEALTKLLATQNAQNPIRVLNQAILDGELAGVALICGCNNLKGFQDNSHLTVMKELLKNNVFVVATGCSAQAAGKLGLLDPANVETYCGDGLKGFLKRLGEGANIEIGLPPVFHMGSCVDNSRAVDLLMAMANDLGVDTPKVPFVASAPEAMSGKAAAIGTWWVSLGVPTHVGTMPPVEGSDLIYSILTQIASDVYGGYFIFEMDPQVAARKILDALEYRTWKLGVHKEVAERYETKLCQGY
Sequence of CODH (P27988 whole entry): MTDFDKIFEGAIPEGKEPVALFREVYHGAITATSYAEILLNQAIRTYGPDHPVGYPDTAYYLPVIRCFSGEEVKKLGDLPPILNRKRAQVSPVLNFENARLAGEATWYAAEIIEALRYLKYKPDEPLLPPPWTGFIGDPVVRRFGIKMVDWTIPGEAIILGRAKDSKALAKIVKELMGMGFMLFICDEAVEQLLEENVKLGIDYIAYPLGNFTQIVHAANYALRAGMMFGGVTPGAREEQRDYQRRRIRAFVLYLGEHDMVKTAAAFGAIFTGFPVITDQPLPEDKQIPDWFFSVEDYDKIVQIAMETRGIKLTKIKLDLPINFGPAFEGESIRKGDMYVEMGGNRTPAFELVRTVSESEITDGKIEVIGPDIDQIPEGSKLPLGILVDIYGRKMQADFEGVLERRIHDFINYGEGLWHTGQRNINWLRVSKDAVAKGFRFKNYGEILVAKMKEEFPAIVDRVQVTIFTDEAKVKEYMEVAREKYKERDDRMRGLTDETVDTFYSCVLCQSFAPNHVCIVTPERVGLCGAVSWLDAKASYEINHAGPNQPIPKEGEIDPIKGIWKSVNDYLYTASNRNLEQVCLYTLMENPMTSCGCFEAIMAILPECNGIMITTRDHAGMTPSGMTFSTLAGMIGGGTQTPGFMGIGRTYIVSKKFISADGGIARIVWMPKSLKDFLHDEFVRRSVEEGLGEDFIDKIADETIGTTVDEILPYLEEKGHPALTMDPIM

In the case of `c1cnc2c(c1)ccc1cccnc12` [1,10phenanthroline], the “Removal of the Ni ion in the A-cluster of CODH” value in data set [1] is recorded as “selectively removed”. Further, in data set [1] (after Ni removal by the chelator), the “Synthesis of acetyl-coenzyme A by CODH without this Ni” value was “can't catalyze”. In the case of `CCN(CC)C(=S)[S-].[Na+]` [DDC, Sodium diethyldithiocarbamate], the “Whole-body retention of nickel” value in data set [2] is listed as “increased”. As to `O=C(O)[C@@H](S)[C@@H](S)C(=O)O` [DMSA, Meso-2,3-dimercaptosuccinic acid], the Water solubility entry is reported as “water-soluble”. Also, the Toxicity result (orally-administered metal chelator) is reported as “non-toxic”. Turning to `O=C(O)CN(CCN(CC(=O)O)CC(=O)O)CCN(CC(=O)O)CC(=O)O` [DTPA, diethylenetriaminepentaacetic acid], the “Preventive effect in nickel-sensitized patients” value in data set [3] is “preventive effect”.

In the case of `CCN(CC)C(=S)SSC(=S)N(CC)CC` [TTD, Tetraethylthiuram disulphide], the “Whole-body retention of nickel” value in data set [2] is on record as “increased”. As to `CC(=NO)C(C)=NO` [dimethylglyoxime], in data set [4], the “Removal of Ni from CO(L)-deficient CODH by treatment” value is “can be removed”.
